Assay results reported in US20220409593A1 (ARKUDA THERAPEUTICS, priority 2019, published 2022).

Legend:
secreted mouse PGRN = test: progranulin induction cellular assay (PGRN assay, ELISA-based readout); conditions: Mus musculus, progranulin secreted into cell culture medium, cells named in method: mouse primary microglia, primary cortical neurons, BV-2
Description: Cellular Assays: To measure the efficacy of compounds, a progranulin induction cellular assay in mouse primary microglia (pMG), primary cortical neurons, and BV-2 cell lines is used. BV-2 cells are split the day before plating into a 96well plate format at approximately 80%. Cells should be plated the day before and allowed for 1 hour attachment period and for 16 hour incubation. Levels of progranulin secreted into the cell culture medium or retained in the cell lysate can be quantified using an ELISA-based readout and measurement of secreted mouse PGRN in the medium was assessed by the methodology published by Ghidoni et al. 2012. Standard ELISA kits to measure PGRN are available from vendors such as Adipogen, R&D, and Biovendor.
Table D below presents the results of a PGRN assay as described above.

mouse BV2 cells = test: secretion of progranulin from mouse BV2 cells; assay type: cell-based
Source text: The compounds disclosed herein (e.g., compounds of Formula I, II, IIa, IIb, III, and as shown in Tables A and B) can increase the amount of progranulin or granulin in a subject. In some cases, the compounds increase the amount of progranulin in a subject. In some cases, the compounds increase the amount of granulin in a subject. In some cases, the compounds affect cells to increase secretion of progranulin. Solifenacin is a drug currently used for urinary incontinence. […] As such, the compounds disclosed herein, (e.g., compounds of Formula I, II, IIa, IIb, III, and as shown in Tables A and B) can be useful in treating disorders associated with aberrant (e.g., reduced) progranulin secretion or activity.

Molecule CN1CC[C@@]2(CN=C(N3CCc4ccccc4[C@@H]3c3ccc(F)cc3)O2)C1 [Compound 3167, (S)-2-((S)-1-(4-fluorophenyl)-3,4-dihydroisoquinolin-2(1H)-yl)-7-methyl-1-oxa-3,7-diazaspiro[4.4]non-2-ene] has an EC50 (secreted mouse PGRN) of 176 nM.
CN1CC[C@]2(CN=C(N3CCc4ccccc4[C@@H]3c3ccc(F)cc3)O2)C1 [Compound 3168, (R)-2-((S)-1-(4-fluorophenyl)-3,4-dihydroisoquinolin-2(1H)-yl)-7-methyl-1-oxa-3,7-diazaspiro[4.4]non-2-ene] showed an EC50 (secreted mouse PGRN) of 68.7 nM.
In the case of Fc1ccc([C@H]2c3ccccc3CCN2C2=NC[C@]3(CCN(CC(F)(F)F)C3)O2)cc1 [Compound 3171, (R)-2-((S)-1-(4-fluorophenyl)-3,4-dihydroisoquinolin-2(1H)-yl)-7-(2,2,2-trifluoroethyl)-1-oxa-3,7-diazaspiro[4.4]non-2-ene], the EC50 (secreted mouse PGRN) is reported as 836 nM.
In the case of Fc1ccc([C@H]2c3ccccc3CCN2C2=NC[C@@]3(CCN(CC(F)(F)F)C3)O2)cc1 [Compound 3172, (S)-2-((S)-1-(4-fluorophenyl)-3,4-dihydroisoquinolin-2(1H)-yl)-7-(2,2,2-trifluoroethyl)-1-oxa-3,7-diazaspiro[4.4]non-2-ene], the EC50 (secreted mouse PGRN) is reported as 1520 nM.
With Fc1ccc([C@H]2c3ccccc3CCN2C2=NC[C@]3(CCN(CCC(F)(F)F)C3)O2)cc1 [Compound 3173, (R)-2-((S)-1-(4-fluorophenyl)-3,4-dihydroisoquinolin-2(1H)-yl)-7-(3,3,3-trifluoropropyl)-1-oxa-3,7-diazaspiro[4.4]non-2-ene] the EC50 (secreted mouse PGRN) was 1040 nM.
With Fc1ccc([C@H]2c3ccccc3CCN2C2=NC[C@@]3(CCN(CCC(F)(F)F)C3)O2)cc1 [Compound 3174, (S)-2-((S)-1-(4-fluorophenyl)-3,4-dihydroisoquinolin-2(1H)-yl)-7-(3,3,3-trifluoropropyl)-1-oxa-3,7-diazaspiro[4.4]non-2-ene] the EC50 (secreted mouse PGRN) was 1380 nM.
OCCN1CC[C@@]2(CN=C(N3CCc4ccccc4[C@@H]3c3ccc(F)cc3)O2)C1 [Compound 3175, 2-((S)-2-((S)-1-(4-fluorophenyl)-3,4-dihydroisoquinolin-2(1H)-yl)-1-oxa-3,7-diazaspiro[4.4]non-2-en-7-yl)ethan-1-ol] showed an EC50 (secreted mouse PGRN) of 181 nM.
OCCCN1CC[C@@]2(CN=C(N3CCc4ccccc4[C@@H]3c3ccc(F)cc3)O2)C1 [Compound 3176, 3-((S)-2-((S)-1-(4-fluorophenyl)-3,4-dihydroisoquinolin-2(1H)-yl)-1-oxa-3,7-diazaspiro[4.4]non-2-en-7-yl)propan-1-ol] showed an EC50 (secreted mouse PGRN) of 318 nM.
In the case of O[C@H]1CNC[C@]12CN=C(N1CCc3ccccc3[C@@H]1c1ccc(F)cc1)O2 [Compound 3177, (5S,9S)-2-((S)-1-(4-fluorophenyl)-3,4-dihydroisoquinolin-2(1H)-yl)-1-oxa-3,7-diazaspiro[4.4]non-2-en-9-ol], the EC50 (secreted mouse PGRN) is reported as 181 nM.
O[C@H]1CNC[C@@]12CN=C(N1CCc3ccccc3[C@@H]1c1ccc(F)cc1)O2 [Compound 3178, (5R,9S)-2-((S)-1-(4-fluorophenyl)-3,4-dihydroisoquinolin-2(1H)-yl)-1-oxa-3,7-diazaspiro[4.4]non-2-en-9-ol] showed an EC50 (secreted mouse PGRN) of 249 nM.
In the case of O=C(O[C@H]1CN2CCC1CC2)N1CCc2ccccc2[C@@H]1c1ccccc1 [Solifenacin], the secretion of progranulin (mouse BV2 cells) is reported as “causes the secretion of progranulin”.
